The values below come from BindingDB's records for doi:10.7270/Q2RB7351 (Technical University of Gdansk, 1997).

The target of this test is Glutamine--fructose-6-phosphate aminotransferase [isomerizing] (Candida albicans (strain SC5314 / ATCC MYA-2876), UniProt P53704). Kind of test: Enzyme Assay. The following applies: pH 6.85. An excerpt: Two assays of GlcN-6-P synthase activity were used 1)determination of GlcN-6_P formation by the modified Elson-Morgan procedure and 2) continuous quantitation of glutamate in a coupled assay with glutamate dehydrogenase in the presence of acetylpyridine adenine dinucleotide.
Glutamine--fructose-6-phosphate aminotransferase [isomerizing], sequence (P53704 whole entry): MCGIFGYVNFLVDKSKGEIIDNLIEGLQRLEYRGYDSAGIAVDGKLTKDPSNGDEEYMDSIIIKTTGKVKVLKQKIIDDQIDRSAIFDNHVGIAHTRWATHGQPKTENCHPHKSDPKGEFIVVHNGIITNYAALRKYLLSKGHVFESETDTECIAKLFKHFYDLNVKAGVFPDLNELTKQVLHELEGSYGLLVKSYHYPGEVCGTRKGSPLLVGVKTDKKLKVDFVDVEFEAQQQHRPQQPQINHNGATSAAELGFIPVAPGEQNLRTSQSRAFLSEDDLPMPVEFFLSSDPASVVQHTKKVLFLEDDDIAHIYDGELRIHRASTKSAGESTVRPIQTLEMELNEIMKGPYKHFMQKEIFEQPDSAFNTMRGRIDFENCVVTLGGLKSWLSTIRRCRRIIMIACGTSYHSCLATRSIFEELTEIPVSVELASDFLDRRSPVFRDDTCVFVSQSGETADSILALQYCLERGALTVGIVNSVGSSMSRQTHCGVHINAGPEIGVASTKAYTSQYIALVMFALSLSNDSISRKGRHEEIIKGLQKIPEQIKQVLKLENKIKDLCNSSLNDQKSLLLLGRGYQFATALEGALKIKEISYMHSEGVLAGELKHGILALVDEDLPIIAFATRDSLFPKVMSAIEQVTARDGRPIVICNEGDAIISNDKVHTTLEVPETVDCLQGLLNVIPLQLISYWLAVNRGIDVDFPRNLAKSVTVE

The term IC50 denotes the concentration that inhibits the measured activity by half. Low values mean inhibition by little substance, high ones a need for much substance. One may read the Ki as the dissociation constant of the complex between target and ligand, obtained from inhibition or displacement.

For the molecule `COC(=O)C(N)CNS(C)(=O)=O` (racemic) [GlcN-6-P synthase inhibitor, 12 (racemic mixture)], the IC50 is greater than 50 mM. `CO[P@@](=O)(O)CC[C@H](N)C(=O)O` [GlcN-6-P synthase inhibitor, 5 (racemic mixture)] yielded an IC50 of 2 mM and an inhibition constant (Ki) of 0.9 mM. The molecule `CCNP(=O)(CCC(N)C(=O)OC)OC` [GlcN-6-P synthase inhibitor, 7 (racemic mixture)] gave an IC50 of 7.8 mM and a Ki of 4.4 mM.

`CCN(CC)S(=O)(=O)CCC(N)C(=O)OC` (racemic) [GlcN-6-P synthase inhibitor, 15 (racemic mixture)] had an IC50 of 1.6 mM and a Ki of 0.6 mM. The molecule `COC(=O)C(N)CCS(C)(=N)=O` [GlcN-6-P synthase inhibitor, 13 (racemic mixture)] displayed a half-maximal inhibitory concentration (IC50) of 2.8 mM and a Ki of 1.5 mM. With `N[C@@H](CCP(=O)(O)O)C(=O)O`, the IC50 was 26 mM and the affinity, expressed as Ki, was 12 mM. `COP(=O)(CCC(N)C(=O)O)OC` [GlcN-6-P synthase inhibitor, 3 (racemic mixture)] returned an IC50 greater than 50 mM. `CCN(CC)P(=O)(CCC(N)C(=O)OC)OC` [GlcN-6-P synthase inhibitor, 9 (racemic mixture)]: the IC50 stood at 3.6 mM and affinity was put at a Ki of 0.94 mM. The molecule `COC(=O)C(N)CCP(=O)(OC)N(C)C` [GlcN-6-P synthase inhibitor, 8 (racemic mixture)] registered an IC50 of 4.4 mM and a Ki of 1.3 mM.

In turn, `COC(=O)C(N)CCS(C)(=O)=O` (racemic) [GlcN-6-P synthase inhibitor, 11 (racemic mixture)] came in with an IC50 greater than 50 mM. Same read-out and setting: for `COC(=O)C(N)CCP(=O)(OC)OC` [GlcN-6-P synthase inhibitor, 2 (racemic mixture)] the value was greater than 50 mM. In the case of `COC(=O)C(N)CCS(N)(=O)=O` (racemic) [GlcN-6-P synthase inhibitor, 14 (racemic mixture)], the IC50 was 5.5 mM and the Ki is 2.8 mM.

As to `COC(=O)C(N)CCP(N)(=O)OC` [GlcN-6-P synthase inhibitor, 6 (racemic mixture)], the IC50 came to 25 mM and the Ki turned out to be 11 mM. Regarding `COC(=O)C(N)CCP(=O)(O)OC` [GlcN-6-P synthase inhibitor, 4 (racemic mixture)], the IC50 was determined as 2.6 mM and the Ki came to 1.2 mM.
